Data taken from US10654896B2, “FoxP3-binding peptides and uses thereof” (FUNDACIÓN PARA LA INVESTIGACIÓN MÉDICA APLICADA, priority 2016, dated 2020).
Where a SMILES comes first, the peptide text is derived from it. [ ]: non-standard residue; d: D form.

What was measured:
[1] = molecular target: T1, FOXP3/Runx1 heterodimerization (Homo sapiens, UniProt Q9BZS1); experiment: FOXP3/Runx1 heterodimerization inhibition (Alphascreen); type: biochemical; conditions: peptide 100 μM
T1 construct: made in house; host or cells: E. coli BL21 (DE3)
T1 sequence (Q9BZS1 1-431): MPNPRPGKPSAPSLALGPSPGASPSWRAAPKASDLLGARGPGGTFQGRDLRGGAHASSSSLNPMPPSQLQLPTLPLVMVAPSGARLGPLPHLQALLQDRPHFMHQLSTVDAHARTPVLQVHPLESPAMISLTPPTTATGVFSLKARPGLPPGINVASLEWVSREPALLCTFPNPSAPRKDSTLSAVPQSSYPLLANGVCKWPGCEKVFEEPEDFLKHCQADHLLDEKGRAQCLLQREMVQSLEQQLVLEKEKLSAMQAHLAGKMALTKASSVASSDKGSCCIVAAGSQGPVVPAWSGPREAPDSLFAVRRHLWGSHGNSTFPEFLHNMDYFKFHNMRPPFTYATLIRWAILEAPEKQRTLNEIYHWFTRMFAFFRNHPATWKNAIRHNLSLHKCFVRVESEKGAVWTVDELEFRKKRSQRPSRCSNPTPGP
Source text: (§1) Plasmid pET20b FOXP3-His was generated to produce the human FOXP3 tagged with 6 histidines at the C terminus of the protein. Briefly, plasmid pDEST15-FOXP3 (provided by Dr. Casal, Madrid, Spain) was used as template to amplify FOXP3 by PCR using the primers Upper FOXP3 Ndel catatgcccaaccccaggc (SEQ ID NO: 55) and Lower FOXP3 […] (SEQ ID NO: 56). The resulting fragment was subcloned in pET20b at Ndel and NotI sites. pET45b His-Runx1 was obtained by PCR of activated human CD4 T cells obtained from healthy volunteers (after the signature of an informed consent) using the primers Upper Runx1 atgcgtatccccgtagatg (SEQ ID NO: 57) and Lower Runx1 […] (SEQ ID NO: 58) and the fragment was cloned in pcDNA3.1. Then, pET45b and pcDNA3.1-Runx1 were digested with BamHI and NotI and ligated to obtain pET45b-Runx1. Plasmids were used to transform BL21 cells (DE3; Novagen, Schwalbach, Germany) for the expression of the recombinant protein. The transformed BL21 cells were grown in LB medium at 37° C. (1 liter of final culture medium) (with ampicilin 0.1 mg/ml). Once the OD of the culture was between 0.5 and 1.0, IPTG (0.4 mM, final concentration) was added. Bacteria were then cultured overnight in agitation and centrifuged for 10 min at 8000 rpm. Cell pellet was then resuspended in 4 ml Tris-HCl 0.1 M and frozen at −80° C. Cell pellet was then thawed and incubated with lisozyme (25 KU) and a protease inhibitor cocktail for 15 min at 30° C. before cell lysis induced with a French-press. The resultant pool was then centrifuged during 20 min at 11.000 rpm). The recombinant protein was purified from the soluble fraction of French-press cell extracts by affinity chromatography (Histrap, Pharmacia) following manufacturer's instructions and using an FPLC platform (AKTA, Pharmacia). Plasmid pDEST15-FOXP3 encoding the fusion protein GST-FOXP3 (GST fused to the isoform A from human FOXP3 gene), was transformed into BL21 cells for the expression of the recombinant protein. GST-FOXP3 protein was purified from the soluble fraction of cell extracts obtained, as described above, by affinity chromatography (GSTrap; Amersham, Piscataway, N.J.) using a fast protein liquid chromatography platform (AKTA; Amersham) following manufacturer's instructions. The eluted proteins were desalted using Hitrap desalting columns (Pharmacia) and analyzed by SDS-PAGE using Coomassie blue (Bio-Safe Coomassie reagent; Bio-Rad, Hercules, Calif.) and by Western blot.
It has been described that dimerization of FOXP3 is required for its function as a transcriptional regulator. Moreover, interaction between FOXP3 and the transcription factor Runx1, is crucially required for normal hematopoiesis including thymic T-cell development, but also for Treg suppressor activity (Reviewed in Lozano et al, Front Oncol. 2013, 3:294). Both activities are mediated by the intermediate region of Foxp3, which is the area of interaction between P60 and Foxp3. Thus, we studied the effect of P60 and their mutants on the FOXP3/Runx1 heterodimerization, as well as FOXP3/FOXP3 homodimerization by Alphascreen technology according to the manufacturer's instructions (Perkin Elmer, Benelux). AlphaScreen™ is a bead-based technology that is designed to measure the proximity of donor and acceptor beads conjugated to biomolecules of interest.
To measure Foxp3-Runx1 interactions, Foxp3-GST and […] proteins were used.
Recombinant Runx1 expressed in E. Coli with a hexa-histidine tag (obtained as disclosed in section (1) above) was captured by nickel chelate acceptor beads following manufacturer's instructions, whereas the recombinant FOXP3 expressed with a GST tag was captured by glutathione donor beads (Perkin Elmer) following manufacturer's instructions. His-tagged Runx1 (46 nM final concentration) was incubated with 100 nM GST-FOXP3 and the peptides to be tested (added at different concentrations from 1 to 100 μM) for 1 h at room temperature. […]

human FOXP3 (FOXP3-6His) = molecular target: T2, human FOXP3 (FOXP3-6His) (Homo sapiens, UniProt Q9BZS1); experiment: Peptide binding to FOXP3 by surface plasmon resonance (SPR); conditions: for Binding to Foxp3 Ratio binding Peptide/p60 (fold change): peptides 1-20 μM, ratio to p60 (SEQ ID NO: 1)
T2 construct: 6xHis (C); made in house; host or cells: E. coli BL21 (DE3)
T2 sequence (Q9BZS1 1-431): T1 sequence (Q9BZS1 1-431)
Source text: as §1
Screening of peptide binding to FOXP3 was performed by surface plasmon resonance (SPR) using ProteOn XPR36 (Bio-Rad, Hercules Calif., USA) optical biosensor. Recombinant protein FOXP3-6His was produced and purified from E. coli as disclosed in previous section and was immobilized covalently onto a GLM sensor chip (176-5012, Bio-Rad) using sulfo-NHS and EDC (Bio-Rad) coupling reagents and the manufacturer's instructions. After protein immobilization, chip surface was treated with ethanolamine to deactivate the excess of reactive esters.
Individual solutions of the peptides to be tested (1-20 μM) were injected by triplicate in running buffer (Phosphate buffered saline, 0.005% (v/v) Tween 20, pH 7.4) at a flow of 30 μl/min. The interspot signal (obtained in the chip surface not immobilized with protein) was used as reference. The results are summarized in Table 6 below as the ratio Peptide of the invention/p60.

[2] = Mouse liver microsomal stability; type: in vitro ADME; conditions: mouse liver microsomes; for remaining at 20 min, 1 μM: read-out: % Remaining after 20 min; for remaining at 1 h, 1 μM: 60 min, read-out: % Remaining after 60 min; for half-life: peptide 1 μM
Experimental: (§2) The data collected were analyzed to calculate a half-life (t1/2, min) for tested peptides at a final concentration of 1 μM. Briefly, 5 μL of stock solution of tested peptide (10 mM) were diluted in 495 μL of 1:1 Methanol/Water (final concentration of 100 μM, 50% MeOH). Then, 50 μL of this intermediate solution were diluted in 450 μL of 100 mM potassium phosphate buffer to a concentration of 10 μM (working solution, 5% MeOH). The NADPH regenerating system contains β-Nicotinamide adenine dinucleotide phosphate (Sigma, Cat. # N0505), Isocitric acid (Sigma, Cat. #11252) and Isocitric dehydrogenase (Sigma, Cat. #12002) at a final concentration of 1 unit/mL at incubation.
(§3) Human liver microsomes were obtained from BD Gentest (Cat. #452117) and mouse liver microsomes from Xenotech (Cat. # M1000), to a final concentration of 0.7 mg protein/mL. A volume of 10 μL of peptide solution and 80 μL of microsome solution were added to a 96-well plate and incubated for 10 min at 37° C. The reaction was started by the addition of 10 μL of NADPH regenerating system and stopped by the addition of 300 μL of stop solution (ACN at 4° C., including 100 ng/mL Tolbutamide and 100 ng/mL of Labetalol as internal standard) at different incubation times (0, 5, 10, 20, 30 and 60 min). Concentrations of test compound were quantified by LC-MS/MS methodologies (Shimadzu LC 20-AD/API4000) using peak area ratio of analyte/internal standard and the percent loss of parent compound was calculated under each time point to determine the half-life.

[3] = Human liver microsomal stability; type: in vitro ADME; conditions: for remaining at 20 min, 1 μM: read-out: % Remaining after 20 min; for remaining at 1 h, 1 μM: 60 min, read-out: % Remaining after 60 min
Experimental: as §2, §3

[4] = human liver microsomes, peptide 1 μM, read-out: t1/2

Row | Foxp3-Runx1 Inhibition % inhibition (100 μM) [1] [%] | Compound | Binding to Foxp3 Ratio binding Peptide/p60 (fold change) (human FOXP3 (FOXP3-6His)) | remaining at 20 min, 1 μM [2] [%] | remaining at 1 h, 1 μM [2] [%] | half-life [2] [min] | remaining at 20 min, 1 μM ([3]; human liver microsomes) [%] | remaining at 1 h, 1 μM ([3]; human liver microsomes) [%] | half-life [3, 4] [min] | half-life ([3]; human, microsomes) [min] | increase in the binding to FoxP3 with respect to p60 (SEQ ID NO: 1) (human FOXP3 (FOXP3-6His))
1 | 55.6 | 15 (RDAQSFRKMWPFFAM) [compound 15] | 1.1 |  |  |  |  |  |  |  | 
2 |  | CSCC[C@@H]1NC(=O)[C@H](C)NC(=O)[C@H](Cc2ccccc2)NC(=O)[C@H](Cc2ccccc2)NC(=O)[C@@H]2CCCN2C(=O)[C@H](Cc2c[nH]c3ccccc23)NC(=O)[C@H](CCSC)NC(=O)[C@H](CCCCN)NC(=O)[C@H](CCCNC(=N)N)NC(=O)[C@H](Cc2ccccc2)NC(=O)[C@H](C)NC(=O)[C@H](CCC(N)=O)NC(=O)[C@H](Cc2ccccc2)NC(=O)[C@@H](C)NC(=O)[C@H](CCCNC(=N)N)NC1=O [compound 51] (cyclo(R[dA]FQAFRKMWPFFAM)) |  | 62.7 | 47.7 | 63.8 | 48.7 | 46.1 | 61.7 |  | 
3 |  | CSCC[C@@H]1NC(=O)[C@H](C)NC(=O)[C@H](Cc2ccccc2)NC(=O)[C@H](Cc2ccccc2)NC(=O)[C@@H]2CCCN2C(=O)[C@H](Cc2c[nH]c3ccccc23)NC(=O)[C@H](CCSC)NC(=O)[C@H](CCCCN)NC(=O)[C@H](CCCNC(=N)N)NC(=O)[C@H](Cc2ccccc2)NC(=O)[C@H](C)NC(=O)[C@H](CCC(N)=O)NC(=O)[C@H](Cc2ccccc2)NC(=O)[C@@H](C)NC(=O)[C@H](CCCNC(=N)N)NCCCNC1=O [compound 52] |  | 98.9 | 48 | 46.9 | 76.9 | 40.1 | 41.4 |  | 
4 |  | CSCC[C@@H]1NC(=O)[C@H](C)NC(=O)[C@H](Cc2ccccc2)NC(=O)[C@H](Cc2ccccc2)NC(=O)[C@@H]2CCCN2C(=O)[C@H](Cc2c[nH]c3ccccc23)NC(=O)[C@H](CCSC)NC(=O)[C@H](CCCCN)NC(=O)[C@H](CCCNC(=N)N)NC(=O)[C@H](Cc2ccccc2)NC(=O)[C@H](C)NC(=O)[C@H](CCC(N)=O)NC(=O)[C@H](Cc2ccccc2)NC(=O)[C@@H](C)NC(=O)[C@H](CCCNC(=N)N)NCCNC(=O)CNC1=O [compound 53] |  | 57 | 3.7 | 12.3 | 32.9 | 2.8 |  | 11.1 | 
5 |  | CSCC[C@@H]1NC(=O)[C@H](C)NC(=O)[C@H](Cc2ccccc2)NC(=O)[C@H](Cc2ccccc2)NC(=O)[C@@H]2CCCN2C(=O)[C@H](Cc2c[nH]c3ccccc23)NC(=O)[C@H](CCSC)NC(=O)[C@H](CCCCN)NC(=O)[C@H](CCCNC(=N)N)NC(=O)[C@H](Cc2ccccc2)NC(=O)[C@H](C)NC(=O)[C@H](CCC(N)=O)NC(=O)[C@H](Cc2ccccc2)NC(=O)[C@@H](C)NC(=O)[C@H](CCCNC(=N)N)NCCOCCNC1=O [compound 54] |  | 97.3 | 30.1 | 30.9 | 55.7 | 11 | 18.4 |  | 
6 |  | Ac-GRAFQSFRKMWPFFAM-NH2 (C-terminus assumed) [compound 13] | 3.2 |  |  |  |  |  |  |  | 
7 |  | RAFQAFRKMWPFFAM [SEQ ID NO: 42] (H-RAFQAFRKMWPFFAM-OH) |  |  |  |  |  |  |  |  | about 400%
8 |  | RDFQSFRKMWPFFAM (cyclo(RDFQSFRKMWPFFAM); also: R1 and R2 form a linker birradical which is -C(=O)-) [SEQ ID NO: 49, head-to-tail cyclic peptide] |  |  |  |  |  |  |  |  | about 500%
